In series [1] the test system is primary human T lymphocytes. Nature of the series: Lentiviral transduction efficiency of primary human T lymphocytes with CAR vector JL28.2, FACS for VEGFR2+ cells. The series is classed as cell-based. The note with it: for transduced cells VEGFR2+: in presence of DD, MOI 1.8; for VEGFR2+ cells: 6 μM BX795 before and concurrently, nine hours total (Pre-treated+Concurrent); for VEGFR2 expression as compared to DD Only Control: day 3 and day 8. The procedure:
Lentivirus encoding the vector JL28.2 (VEGFR2-CD28TM-CD28IC-P2A-GFP), which encodes a chimeric antigen receptor composed of VEGFR2 and GFP protein, was added to the activated T lymphocyte culture at a multiplicity of infection (MOI) of 1.8. Fluorescence-activated cell sorting (FACS) was used to determine the proportion of T lymphocytes expressing VEGFR2 as a marker for successfully transduced cells.
Transduced lymphocytes were then analyzed by FACS to determine the proportion of successfully transduced cells.
T lymphocytes were cultured for eight days after transduction, and VEGFR2 expression was monitored at days 3 and 8 post-transduction.
Cells were analyzed by FACS for viability.
Primary human T lymphocytes were cultured as in Section 6.3.1 and analyzed by FACS for expression of VEGFR2.

Series [2] concerns primary human T lymphocytes. As to the kind of experiment: Viability of primary human T lymphocytes after lentiviral transduction, by FACS. To be noted: absence of 2-AP, JL28.2 MOI 3, 50 U/ml IL-2; without DD or PS 84%. In general terms: Flow cytometry measures light scatter and fluorescence of single cells or particles in a stream.
Experimental: Primary human T lymphocytes were cultured in RPMI-1640 media supplemented with 10% (v/v) fetal bovine serum (FBS), and activated with anti-CD3/CD28 Dynabeads® at a Dynabead:T lymphocyte ratio of 3:1 for 24 hours. 2-Aminopurine (2-AP) was added to cultures and incubated for 90 minutes at 37 C. DEAE-dextran (DD) or protamine sulfate (PS) were added to the cultures in the presence of 50 U/ml IL-2 and JL28.2 lentiviral vector at an MOI of 3. Cells were analyzed by FACS for viability.

Results on 3 molecules are retold here after patent US11629335B2, “Methods of improving vector transduction efficiency into T lymphocytes” (CELGENE CORPORATION, priority 2014, dated 2023).

With `Nc1ncc2[nH]cnc2n1` [2-AP, 2-Aminopurine], the “transduction efficiency as compared to cells not exposed to 2-AP (Control)” value in series [1] (2-AP 2.5 mM, 5 mM or 10 mM, pretreated 90 minutes, then 5 hours with lentivirus, in presence of DD or PS) was “increased transduction efficiency”.
`O=C(NCCCNc1nc(Nc2cccc(NC(=O)N3CCCC3)c2)ncc1I)c1cccs1` [BX795]: the figures for the “transduced cells VEGFR2+” value in series [1] (1 μM BX795 added concurrently with lentivirus for six hours) and in series [1] (10 μM BX795 added concurrently with lentivirus for six hours) were 7.63% and 10.5%, respectively. Moreover, the “VEGFR2+ cells” value in series [1] (day 3 post-transduction) is 18.4%; in series [1] (day 8 post-transduction) it was 10.6%. Also, the “VEGFR2 expression level relative to DD Only cultures” value in series [1] (6 μM BX795 both before and during lentiviral transduction) was “roughly twice as high”. Also, the entries for the “VEGFR2 expression as compared to DD Only Control” value in series [1] (6 μM BX795 concurrently with lentiviral transduction for six hours (Concurrent)) and in series [1] (6 μM BX795 for three hours before lentiviral transduction (Pre-treated)) were “no improvement” and “increase”, respectively.
As to protamine sulfate [PS], the “viable cells after lentiviral transduction” value in series [2] was determined as 84.9%. Moreover, in series [1] (transformation reagent alone, no 2-AP, JL28.2 MOI 3, without DD or PS 4.49%), the “cells VEGFR2+” value is listed as 0.565%.
